Reference: US8999892B2, “Use of S-abscisic acid for improving fruit set and producing parthenocarpic fruits and as a growth inhibitor” (Globachem, priority 2004, dated 2015)

What was measured:
Format in all cases: in vivo
[1] = test system: apple trees, variety Boskoop; experiment: Promoting fruit set, production of parthenocarpic fruits and inhibition of growth in pome fruit, orchard spray trial 2004; settings: for Number of apples/tree / Number of unclosed buds/tree (crown tip excluded): evaluation 6 Jul. 2004
Description: Experimental period: 2004 Pome fruit crops treated: apple trees, variety Boskoop The fruit orchard was sprayed on 23 April, that is, during full flower. A further plot was spayed on 20 May 2004. S-ABA was applied in a dose of 2 g/ha. For the control experiment, the same formulation, but with-out S-ABA, was used. The number of fruit trees per plot was 40. The evaluation on 6 Jul. 2004 provided the following results: The buds or shoots in the crown tip of the trees were not taken into account because increased shoot growth frequently occurs in these places due to intensive cutting measures. In general, the growth of shoots in the crown tip is stronger than in the other regions of the tree crown.

[2] = test system: apple trees, variety Jonagored; experiment: Promoting fruit set in pome fruit, orchard spray trial 2003; settings: 2 g/ha sprayed three weeks after full flower
Description: Experimental period: 2003 Pome fruit crops treated: apple trees, variety Jonagored. The fruit orchard was sprayed on 9 May, that is, three weeks after full flower (18 April). S-ABA was applied in a dose of 2 g/ha. For the control experiment, the same formulation, but without S-ABA, was used. The number of fruit trees per plot was 10.

[3] = test system: cherry trees, variety Summit; experiment: Improvement of fruit set in stone fruit, orchard spray trial 2004; settings: 2 g/ha sprayed one week after flowering
Description: Experimental period: 2004 Stone fruit crops treated: cherry trees, variety Summit The fruit orchard was sprayed with S-ABA one week after flowering; the dose was 2 g/ha. For the control experiment, the same formulation, but without S-ABA, was used. The number of fruit trees per plot was 5.

[4] = 2 g/ha sprayed 23 April (full flower)

CC(C=C[C@@]1(O)C(C)=CC(=O)CC1(C)C)=CC(=O)O (stereo in doubt) [S-ABA, (S)-5-(1-hydroxy-2,6,6-trimethyl-4-oxo-2-cyclohexenyl)-3-methyl-cis/trans-2,4-pentanedienoic acid]
Number of apples/tree ([1]; 2 g/ha sprayed 20 May): 42
Number of unclosed buds/tree (crown tip excluded) ([1]; 2 g/ha sprayed 20 May): 0
Number of apples/tree [1, 4]: 35.4
Number of unclosed buds/tree (crown tip excluded) [1, 4]: 1.66
Increase in total number of apples per tree as compared with the control ([1]; plot treated 20 May): approximately 21%
Closure of buds (inhibition of vegetative growth) ([1]; plots treated with S-ABA, independently of the time of treatment): almost all buds were closed
Effect on fruit set of treatment during flowering ([1]; treatment during flowering (23 April)): not adversely affected
Formation of parthenocarpic fruits ([1]; trees treated with 2 g/ha): parthenocarpic, pipless fruits were formed
Apples in grade 75-85 mm [2]: 15.54 kg
Apples in grade A2++ (75-85 mm) [2]: 9.62 kg
Increase in number of apples per tree as compared to the control [2]: 17%
Increase in yield (in kg) as compared to the control [2]: 8%
Increase in yield in the high grades [2]: 84%
Increase in yield of grade A2++ (optimal fruit color) [2]: near doubling of the yield
Number of apples/tree [2]: 129
Yield ([2]; 10 trees per plot): 33.37 kg/tree
Formation of parthenocarpic fruits [3]: Parthenocarpic fruits were not observed
Increase in number of fruits compared to the control plot [3]: near doubling of the number of fruits
Weight per cherry [3]: not significantly influenced
Yield ([3]; 5 trees per plot): 25 kg/tree
